The source of these data is PubChem BioAssay (NCI).

Several values for one entry are separate records, joined by “and”; a condition that tells them apart may be missing. Identical values can stand only once.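 Interpolation was linear, between the two tested concentrations surrounding the appropriate level; five concentrations were tested over 48 hours in 96-well plates. Abbreviation: GI50, concentration required for 50% inhibition of growth. TGI denotes the concentration required for complete inhibition of growth.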

Some test systems named below: ACHN renal; CAKI-1 renal; CCRF-CEM leukemia; DU-145 prostate; HCT-116 colon; MDA-MB-435; SF-295 CNS; SNB-19 CNS; U251 CNS; UO-31 renal.
Assay in all cases: growth of human tumour cells (NCI), 48 h

In the case of `COc1cc2c(cc1OCCCCCOc1ccc(-c3nc4ccccc4s3)cc1)N=C[C@@H]1CCCN1C2=O`, the GI50 in the experiment with ACHN renal was 2.73 µM; in the experiment with CAKI-1 renal, 2.36 µM; in the experiment with CCRF-CEM leukemia, 2.48 µM; with DU-145 prostate it was 2.08 µM; in the experiment with HCT-116 colon, 1.23 µM; in the experiment with MDA-MB-435 it was 10.5 µM. In addition, the GI50 in the experiment with SF-295 CNS was 2.37 µM; with SNB-19 CNS, 5.08 µM; in the experiment on U251 CNS it was 1.47 µM; with UO-31 renal, 2.5 µM. Besides, the TGI with ACHN renal is 27.6 µM; with CAKI-1 renal it was greater than 62 µM; in the experiment with CCRF-CEM leukemia it was greater than 100 µM; in the experiment with DU-145 prostate, 13 µM; in the experiment with HCT-116 colon it was 12.4 µM; in the experiment on MDA-MB-435, 69.2 µM. The TGI was greater than 100 µM in the experiment with SF-295 CNS, 20.8 µM in the experiment on SNB-19 CNS, 16.1 µM with U251 CNS and 13.4 µM in the experiment with UO-31 renal.
Take `CC(C)CC(NC(=O)C(O)C(N)Cc1ccccc1)C(=O)O` (stereo not given): the TGI with ACHN renal, with CAKI-1 renal, in the experiment on CCRF-CEM leukemia, with DU-145 prostate, in the experiment with HCT-116 colon and in the experiment on MDA-MB-435 was greater than 100 µM each time. Further, the TGI with SF-295 CNS, in the experiment with SNB-19 CNS, with U251 CNS and in the experiment on UO-31 renal was greater than 100 µM in each case.
Take `CN(C)CCN1C(=O)c2cccc3cc(N)cc(c23)C1=O`: the GI50 with ACHN renal is 1.33 µM; in the experiment with CAKI-1 renal, 1.77 µM and 1.11 µM; in the experiment on CCRF-CEM leukemia, 3.45 µM; in the experiment with DU-145 prostate, 1.59 µM; with HCT-116 colon, 3.21 µM; with MDA-MB-435, 3.86 µM. Further, the GI50 is 2.29 µM in the experiment on SF-295 CNS, 4.7 µM in the experiment on SNB-19 CNS, 2.85 µM in the experiment with U251 CNS and 2.09 µM with UO-31 renal. For the same compound, the TGI was 4.47 µM and 3.63 µM in the experiment with ACHN renal; 11.1 µM and 7.59 µM in the experiment on CAKI-1 renal; > 50.7 µM and 20 µM with CCRF-CEM leukemia; 29.8 µM and 12.9 µM with DU-145 prostate; > 60.2 µM and 9.87 µM in the experiment with HCT-116 colon; 15.7 µM and 9.98 µM in the experiment on MDA-MB-435. For the same compound, the TGI in the experiment with SF-295 CNS is 9.31 µM and 18.4 µM; in the experiment on SNB-19 CNS, > 88.9 µM and 18.8 µM; in the experiment with U251 CNS, > 46.7 µM and 20.6 µM; in the experiment with UO-31 renal it was 43.1 µM and 12.8 µM.
Turning to `COc1cc(OC)c(OC)cc1/C=C/c1ccccn1`, the TGI in the experiment on ACHN renal, in the experiment with CAKI-1 renal, in the experiment on CCRF-CEM leukemia, in the experiment with DU-145 prostate, with HCT-116 colon and with MDA-MB-435 was greater than 10 µM throughout. In addition, the TGI in the experiment on SF-295 CNS, in the experiment on SNB-19 CNS, with U251 CNS and in the experiment on UO-31 renal was greater than 10 µM each time.
For the compound `CCCCCOC(=O)c1c(C)[nH]c(/C=C2\N=C(c3ccc[nH]3)C=C2OC)c1C`, the GI50 with ACHN renal was 0.0396 µM; with CAKI-1 renal, 0.0335 µM; with CCRF-CEM leukemia, 0.0194 µM; in the experiment on DU-145 prostate, 0.0371 µM; in the experiment on HCT-116 colon, 0.0193 µM; in the experiment with MDA-MB-435, 0.0348 µM. In addition, the GI50 in the experiment on SF-295 CNS is 0.0966 µM; in the experiment on SNB-19 CNS, 0.317 µM; in the experiment on U251 CNS, 0.0219 µM; with UO-31 renal, 0.021 µM. Also, the TGI in the experiment on ACHN renal was 1.21 µM; in the experiment with CAKI-1 renal, 0.335 µM; in the experiment with CCRF-CEM leukemia, 1.99 µM; in the experiment with DU-145 prostate, 1.68 µM; with HCT-116 colon, 0.349 µM; in the experiment on MDA-MB-435, 0.734 µM. In addition, the TGI in the experiment on SF-295 CNS was 0.544 µM; in the experiment with SNB-19 CNS, 8.4 µM; in the experiment with U251 CNS, 0.461 µM; in the experiment with UO-31 renal, 0.0689 µM.
As to `O=C(O)c1c2c(c(O)c3c1CN(C1CCCCC1)CO3)OCN(C1CCCCC1)C2`, the TGI with ACHN renal is greater than 100 µM; with CAKI-1 renal, greater than 100 µM; in the experiment on CCRF-CEM leukemia, 55.7 µM; in the experiment with DU-145 prostate it was greater than 100 µM; with HCT-116 colon it was greater than 100 µM; in the experiment with MDA-MB-435 it was greater than 100 µM. The TGI in the experiment with SF-295 CNS, in the experiment with SNB-19 CNS, with U251 CNS and in the experiment on UO-31 renal was greater than 100 µM throughout.
`Cc1cc2c(cc1Cl)SC(=Nc1ccc(Cl)cc1)N(S(=O)(=O)c1ccc(Br)s1)S2(=O)=O`: the GI50 was 9.05 µM with ACHN renal; 19.5 µM in the experiment with CAKI-1 renal; 10.1 µM in the experiment on CCRF-CEM leukemia; 13.3 µM in the experiment with DU-145 prostate; 14.7 µM in the experiment with HCT-116 colon; 14.1 µM in the experiment with MDA-MB-435. The GI50 was 24.7 µM in the experiment on SF-295 CNS, 13.7 µM in the experiment on SNB-19 CNS, 8.57 µM with U251 CNS and 24.6 µM in the experiment on UO-31 renal. Moreover, the TGI is 21.1 µM with ACHN renal; 42.2 µM in the experiment with CAKI-1 renal; greater than 100 µM in the experiment with CCRF-CEM leukemia; 26.1 µM in the experiment with DU-145 prostate; 27.8 µM with HCT-116 colon; 31.3 µM in the experiment with MDA-MB-435. Moreover, the TGI in the experiment on SF-295 CNS was 60.5 µM; with SNB-19 CNS, 46.4 µM; with U251 CNS, 21.4 µM; in the experiment on UO-31 renal it was 61 µM.
On to `OC(c1ccccc1)c1c(-c2ccccc2)[nH]c(-c2ccccc2)c1C(O)c1ccccc1` (stereo not given), for which the TGI in the experiment on ACHN renal is 11.9 µM; with CAKI-1 renal it was 6.75 µM; with CCRF-CEM leukemia, 6.08 µM; in the experiment with DU-145 prostate it was 20 µM; with HCT-116 colon, 8.83 µM; in the experiment on MDA-MB-435, 7.73 µM. For the same compound, the TGI in the experiment on SF-295 CNS came out at 38.6 µM; with SNB-19 CNS it was 23.4 µM; in the experiment with U251 CNS, 18.5 µM; with UO-31 renal it was 5.78 µM.
Take `CCOc1ccc2nc3cc(N)ccc3c(N)c2c1`: the GI50 in the experiment on ACHN renal is 7.01 µM and 3.93 µM; in the experiment with CAKI-1 renal it was 36.1 µM and 22.8 µM; in the experiment with CCRF-CEM leukemia, 3.43 µM and 4.22 µM; in the experiment with DU-145 prostate, 5.65 µM and 6.17 µM; in the experiment with HCT-116 colon it was 3.62 µM and 3.63 µM; in the experiment with MDA-MB-435, 10.6 µM and 7.74 µM. In addition, the GI50 with SF-295 CNS was 2.09 µM and 1.98 µM; in the experiment on SNB-19 CNS it was 0.339 µM and 0.574 µM; in the experiment on U251 CNS, 0.534 µM and 0.476 µM; in the experiment with UO-31 renal it was 3.11 µM and 11.6 µM. Moreover, the TGI with ACHN renal is 48.3 µM and 16.6 µM; in the experiment with CAKI-1 renal, > 100 µM and 76.3 µM; in the experiment with CCRF-CEM leukemia it was 17.1 µM and 20.9 µM; with DU-145 prostate it was 18.3 µM and 19 µM; in the experiment with HCT-116 colon it was 15.4 µM and 14.2 µM; with MDA-MB-435, 24.3 µM and 22.4 µM. For the same compound, the TGI was 11.9 µM and 11.4 µM with SF-295 CNS; 2.04 µM and 5 µM in the experiment with SNB-19 CNS; 2.49 µM and 2.09 µM in the experiment on U251 CNS; 27.7 µM and 62.8 µM with UO-31 renal.
